Measured values published in PubChem BioAssay (NCI).
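GI50 = concentration required for 50% inhibition of growth. TGI marks complete inhibition of growth.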

Columns and labels:
Assay in all cases: NCI anticancer screen, dose series, 384-well format
DU-145 prostate = test system: DU-145 prostate
HCC-2998 colon = test system: HCC-2998 colon
MDA-MB-468 breast = test system: MDA-MB-468 breast
HCT-116 colon = test system: HCT-116 colon
NCI-H23 lung = test system: NCI-H23 lung
LOX IMVI melanoma = test system: LOX IMVI melanoma
MDA-MB-231 breast = test system: MDA-MB-231 breast
RPMI-8226 leukemia = test system: RPMI-8226 leukemia
RXF 393 renal = test system: RXF 393 renal
A498 renal = test system: A498 renal
T-47D breast = test system: T-47D breast
HS 578T breast = test system: HS 578T breast
SW-620 colon = test system: SW-620 colon
UO-31 renal = test system: UO-31 renal
U251 glioblastoma = test system: U251 glioblastoma
HOP-92 NSCLC = test system: HOP-92 NSCLC
SK-MEL-28 melanoma = test system: SK-MEL-28 melanoma
IGROV1 ovarian = test system: IGROV1 ovarian
COLO 205 colon = test system: COLO 205 colon
SK-OV-3 ovarian = test system: SK-OV-3 ovarian
NCI-H460 NSCLC = test system: NCI-H460 NSCLC
SF-295 CNS = test system: SF-295 CNS
OVCAR-5 ovarian = test system: OVCAR-5 ovarian
EKVX NSCLC = test system: EKVX NSCLC
MOLT-4 leukemia = test system: MOLT-4 leukemia
786-0 renal = test system: 786-0 renal
KM12 colon = test system: KM12 colon
CAKI-1 renal = test system: CAKI-1 renal
BT-549 breast = test system: BT-549 breast
SF-539 CNS = test system: SF-539 CNS
HOP-62 NSCLC = test system: HOP-62 NSCLC
SNB-19 CNS = test system: SNB-19 CNS
NCI/ADR-RES ovarian = test system: NCI/ADR-RES ovarian
TK-10 renal = test system: TK-10 renal
NCI-H322M lung = test system: NCI-H322M lung
NCI-H522 lung = test system: NCI-H522 lung
A549 NSCLC = test system: A549 NSCLC
OVCAR-8 ovarian = test system: OVCAR-8 ovarian
MCF7 breast = test system: MCF7 breast
MALME-3M melanoma = test system: MALME-3M melanoma
SR leukemia = test system: SR leukemia
HCT-15 colon = test system: HCT-15 colon
MDA-MB-435 melanoma = test system: MDA-MB-435 melanoma
SN12C renal = test system: SN12C renal
ACHN renal = test system: ACHN renal
UACC-257 melanoma = test system: UACC-257 melanoma
PC-3 prostate = test system: PC-3 prostate
OVCAR-4 ovarian = test system: OVCAR-4 ovarian
NCI-H226 lung = test system: NCI-H226 lung
HT29 colon = test system: HT29 colon

For CNC(=O)c1ccccc1Sc1ccc2c(/C=C/c3ccccn3)n[nH]c2c1, the GI50 (DU-145 prostate) was 30.1 µM, the TGI (DU-145 prostate) was > 100 µM and the GI50 (HCC-2998 colon) was > 100 µM. The TGI (HCC-2998 colon) was > 100 µM, the GI50 (MDA-MB-468 breast) was 1.92 µM and the TGI (MDA-MB-468 breast) was 5.88 µM. For the same compound, the GI50 (HCT-116 colon) was 4.39 µM, the TGI (HCT-116 colon) was > 100 µM and the GI50 (NCI-H23 lung) was 15.5 µM. The TGI (NCI-H23 lung) was > 100 µM, the GI50 (LOX IMVI melanoma) was 5.04 µM and the TGI (LOX IMVI melanoma) was 41.7 µM. For the same compound, the GI50 (MDA-MB-231 breast) was 21.7 µM, the TGI (MDA-MB-231 breast) was > 100 µM and the GI50 (RPMI-8226 leukemia) was 3.77 µM. The TGI (RPMI-8226 leukemia) was 13.9 µM, the GI50 (RXF 393 renal) was 4.61 µM and the TGI (RXF 393 renal) was 31.1 µM. For the same compound, the GI50 (A498 renal) was 35.4 µM, the TGI (A498 renal) was > 100 µM and the GI50 (T-47D breast) was 2.57 µM. The TGI (T-47D breast) was 16.1 µM, the GI50 (HS 578T breast) was 2.17 µM and the TGI (HS 578T breast) was 35.7 µM. The GI50 (SW-620 colon) was 46.7 µM, the TGI (SW-620 colon) was > 100 µM and the GI50 (UO-31 renal) was 32.8 µM. For the same compound, the TGI (UO-31 renal) was > 100 µM, the GI50 (U251 glioblastoma) was 19.1 µM and the TGI (U251 glioblastoma) was > 100 µM. The GI50 (HOP-92 NSCLC) was 20.3 µM, the TGI (HOP-92 NSCLC) was > 100 µM and the GI50 (SK-MEL-28 melanoma) was 22.4 µM. For the same compound, the TGI (SK-MEL-28 melanoma) was > 100 µM, the GI50 (IGROV1 ovarian) was 36.1 µM and the TGI (IGROV1 ovarian) was > 100 µM. The GI50 (COLO 205 colon) was 2.52 µM, the TGI (COLO 205 colon) was > 100 µM and the GI50 (SK-OV-3 ovarian) was 65.7 µM. For the same compound, the TGI (SK-OV-3 ovarian) was > 100 µM, the GI50 (NCI-H460 NSCLC) was 2.59 µM and the TGI (NCI-H460 NSCLC) was 45 µM. For the same compound, the GI50 (SF-295 CNS) was 3.59 µM, the TGI (SF-295 CNS) was 69 µM and the GI50 (OVCAR-5 ovarian) was > 100 µM. For the same compound, the TGI (OVCAR-5 ovarian) was > 100 µM, the GI50 (EKVX NSCLC) was 29.9 µM and the TGI (EKVX NSCLC) was > 100 µM. It also gave a GI50 (MOLT-4 leukemia) of 0.175 µM, a TGI (MOLT-4 leukemia) of 0.328 µM and a GI50 (786-0 renal) of 42.1 µM. The TGI (786-0 renal) was > 100 µM, the GI50 (KM12 colon) was 1.11 µM and the TGI (KM12 colon) was > 100 µM. The GI50 (CAKI-1 renal) was 22 µM, the TGI (CAKI-1 renal) was > 100 µM and the GI50 (BT-549 breast) was 1.22 µM. The TGI (BT-549 breast) was 6.94 µM, the GI50 (SF-539 CNS) was 1.01 µM and the TGI (SF-539 CNS) was 7.16 µM. For the same compound, the GI50 (HOP-62 NSCLC) was 4.4 µM, the TGI (HOP-62 NSCLC) was > 100 µM and the GI50 (SNB-19 CNS) was 66 µM. The TGI (SNB-19 CNS) was > 100 µM, the GI50 (NCI/ADR-RES ovarian) was 5.09 µM and the TGI (NCI/ADR-RES ovarian) was 18.4 µM. For the same compound, the GI50 (TK-10 renal) was > 100 µM, the TGI (TK-10 renal) was > 100 µM and the GI50 (NCI-H322M lung) was 20.7 µM. For the same compound, the TGI (NCI-H322M lung) was 73.7 µM, the GI50 (NCI-H522 lung) was 1.35 µM and the TGI (NCI-H522 lung) was 13.8 µM. The GI50 (A549 NSCLC) was 7.86 µM, the TGI (A549 NSCLC) was > 100 µM and the GI50 (OVCAR-8 ovarian) was 14.3 µM. The TGI (OVCAR-8 ovarian) was 42.5 µM, the GI50 (MCF7 breast) was 16.2 µM and the TGI (MCF7 breast) was > 100 µM. The GI50 (MALME-3M melanoma) was 13.6 µM, the TGI (MALME-3M melanoma) was 85.9 µM and the GI50 (SR leukemia) was 0.356 µM. For the same compound, the TGI (SR leukemia) was 0.539 µM, the GI50 (HCT-15 colon) was 4.68 µM and the TGI (HCT-15 colon) was > 100 µM. The GI50 (MDA-MB-435 melanoma) was > 100 µM, the TGI (MDA-MB-435 melanoma) was > 100 µM and the GI50 (SN12C renal) was 4.88 µM. The TGI (SN12C renal) was 79.7 µM, the GI50 (ACHN renal) was 13.8 µM and the TGI (ACHN renal) was > 100 µM. It also gave a GI50 (UACC-257 melanoma) of 26.7 µM, a TGI (UACC-257 melanoma) of 92.2 µM and a GI50 (PC-3 prostate) of 20.2 µM. For the same compound, the TGI (PC-3 prostate) was > 100 µM, the GI50 (OVCAR-4 ovarian) was 19.3 µM and the TGI (OVCAR-4 ovarian) was > 100 µM. For the same compound, the GI50 (NCI-H226 lung) was 1.06 µM, the TGI (NCI-H226 lung) was 7.68 µM and the GI50 (HT29 colon) was 46.5 µM. The TGI (HT29 colon) was > 100 µM.
